pIC50: −log10 of the molar value.
Target: CDK2 (UniProt P24941)
Experiment: Enzyme Assay

pIC50	SMILES
> 6.30	O=C(Nc1n[nH]c2cc(C(=O)O)oc12)c1ccc(N2CCOCC2)cc1
> 6.30	CN1CCN(C(=O)c2cc3[nH]nc(NC(=O)c4ccc(F)cc4)c3s2)CC1
> 6.30	CCCCNC(=O)c1cc2[nH]nc(NC(=O)C3CC3)c2s1
> 6.30	CN1CCN(C(=O)c2cc3[nH]nc(NC(=O)c4ccc(F)cc4)c3o2)CC1
> 6.30	CCC(NC(=O)c1cc2[nH]nc(NC(=O)c3ccc(N4CCOCC4)cc3)c2o1)c1ccccc1 (configuration not stated)
> 6.30	O=C(Nc1n[nH]c2cc(C(=O)NCc3ccccc3)sc12)c1cc(F)cc(F)c1
> 6.30	CN1CCN(c2ccc(C(=O)Nc3n[nH]c4cc(C(=O)NCc5ccco5)sc34)cc2)CC1
> 6.30	C=CCNC(=O)c1cc2[nH]nc(NC(=O)NCc3ccccc3)c2s1
> 6.30	C[C@@H](NC(=O)c1cc2c(NC(=O)c3ccc(N4CCN(C)CC4)cc3)n[nH]c2s1)c1ccccc1
> 6.30	CCCCNC(=O)c1cc2[nH]nc(NC(=O)CCCC)c2s1
> 6.30	Cc1c(C(=O)NCc2ccc(F)cc2)sc2c(NC(=O)c3ccc(F)cc3)n[nH]c12
> 6.30	CN1CCN(c2ccc(C(=O)Nc3n[nH]c4cc(C(=O)NCc5ccoc5)sc34)cc2)CC1
> 6.30	O=C(Nc1n[nH]c2cc(C(=O)O)sc12)c1ccc(N2CCOCC2)cc1
> 6.30	CCNC(=O)c1cc2[nH]nc(NC(=O)c3ccc(N4CCN(C)CC4)cc3)c2s1
> 6.30	CCCCNC(=O)c1cc2[nH]nc(NC(=O)c3cccs3)c2s1
> 6.30	CCC(NC(=O)c1cc2[nH]nc(NC(=O)c3ccc(N4CCN(C)CC4)cc3)c2o1)c1ccccc1 (configuration not stated)
> 6.30	Cc1c(C(=O)NCc2ccc(F)cc2)sc2c(NC(=O)c3cccs3)n[nH]c12
